From patent publication US20150343016A1, “CHEMICAL ENTITIES AND THERAPEUTIC USES THEREOF” (The Regents of the University of Colorado, a body corporate, priority 2010, published 2015)

Columns and labels:
[1] = system: Drosophila Chk1 or p53 mutant larvae; assay: Drosophila screen for agents that increase the sensitivity of mutant larvae to radiation (NCI Diversity Set I and Natural Products Set); assay type: in vivo; settings: irradiated Drosophila Chk1 or p53 mutant larvae
From the text: The Diversity Set I from the NCI-DTP, which is comprised of 1990 molecules chosen for chemical structural diversity and not for biological activity was screened using the Drosophila screen (U.S. Pat. No. 7,695,899).
Table 1. […] A total of 2225 molecules in Diversity Set I (n=1990) and Natural Products Set (n=235) libraries from the NCI-DTP were screened for agents that increased the sensitivity of Drosophila Chk1 or p53 mutant larvae to radiation. […] MT=microtubule; DS=double strand; topo=topoisomerase; NT=nucleotide
The Natural Product Set, also from the NCI-DTP, which contains 235 small molecules derived from natural sources was selected next. These molecules were identified initially in extracts from plants, microbes and marine organisms, but are now synthesized to sufficient purity for distribution by the NCI as plated sets.
(§1) The screen was performed using irradiated mutant larvae. Hits from the screen were defined as those that reduced the survival of IRRADIATED larvae compared to the population of drugs being tested (approximately 80 molecules at a time) or compared to DMSO controls in the re-test. A hit could therefore act by enhancing the effect of radiation, or by simply killing larvae as a single agent, or both. To distinguish among these possibilities, hits from the screen were re-tested against larvae with and without irradiation.

[2] = system: p53 mutant Drosophila larvae; assay: Drosophila larval survival to adulthood (eclosion), drug with and without IR, p53 mutants; assay type: in vivo; settings: drug alone (without radiation), wide range of doses
Procedure: as §1, with “To validate the identification of Bouvardin from the primary screen, the effect of this molecule on Drosophila larvae alone or in combination with radiation were assessed (FIG. 12). The” for “The”
(§2) In FIG. 12 survival after each treatment is expressed as the fraction of animals that emerged (“eclosed”) as viable adults. The averages have been normalized to the average fraction eclosed in no IR/drug control for the respective genotype. Error bars extend beyond fractional survival of 1.0 simply because of normalization. (A-C) Fraction eclosed for WT and grp and p53 mutants at 16 uM of Bouvardin, with and without IR. The data are averages of 3-8 biological replicates per sample. Dotted line on each graph denotes expected ‘fraction eclosed’ if drug and IR act additively. IR doses were 4000R for WT and grp and 3000R for p53 because of the higher radiation sensitivity of the latter. (D) Fraction eclosed for Minute mutants and yw controls after exposure to 0 (−IR) and 2000R (+IR) of X-rays. N ranged from 86-207 per genotype per treatment, in 3 biological replicates per sample. *=p<0.01; **=<0.001. 100R=1Gy. Error bar=1 standard deviation.
(§3) The activity of Bouvardin in Drosophila alone or in combination with ionizing radiation (IR) was assessed. Drug concentrations of 10-20 μM were used to approximate the conditions of the original screen. Third instar larvae were irradiated and cultured on medium containing drug. The survival of larvae was quantified 10 days later by measuring the rate of eclosion into adulthood. […] For example, IR alone reduces the eclosion of p53 mutants to 0.63±0.05 and 10 μM of drug reduces it to 0.82±0.15. The combination of Bouvardin and IR reduces eclosion to 0.49, nearly the exact number expected (0.63±0.05×0.82±0.15=0.51±0.10) if the two treatments produced an additive effect. The expected eclosion for additive effect of drug and radiation are denoted with a white dotted line in each graph.
(§4) Wild type flies were of the Sevelin stock. Mutants have been described before. p535A-1-4 results from targeted deletion of the gene, and is maintained and used as homogygotes. grpl (Chk1 mutants) results from a p-element insertion and is a genetic null. Homozygotes of the latter were identified by the lack of GFP marker on the balancer chromosome. Minute mutants were of the genotypes y[1]w[*]; P[w[+mC]=lacW]RpS131/CyO and P[lacW]RpL36G0471 w67c23/FM7a. Because Minute mutants were in yw or w background, y1w1 (Bloomington stock #1495) was used as ‘wild type’ control in these experiments.
(§5) Feeding stage 3rd instar larvae were irradiated as previously described (2). Briefly, 120 hr old larvae were rinsed to remove food and passed through sizing sieves to obtain animals of uniform size. Larvae were placed in a Petri dish and irradiated using a TORREX X-ray generator, set at 115 kV and 5 mA (producing 2.4 Rads/sec or 1.44 Gy/min) Irradiated larvae were then cultured on cornmeal-agar media (2) containing drug or DMSO carrier. In all experiments using human cells, cells in 96-well plates were irradiated with a RS2000 Biological Irradiator (Rad Source Technologies, Inc.) delivering 1 Gy/min.

[3] = system: H157 lung cancer cells; assay: CellTiter-Glo Luminescent Cell Viability Assay, Streptovitacin with ionizing radiation, H157; assay type: cell-based, human; settings: drug added 24 hr before irradiation
Procedure: FIG. 15 depicts CI values for Streptovitacin A and radiation on H157 lung cancer cells.
For FIG. 15 CellTiter-Glo® Luminescent Cell Viability Assay (Promega G7570) were used to determine the effect of Streptovitacin (concentrations in uM) in combination with ionizing radiation (in Gy, X-axis). The drug was added 24 hr before irradiation. (A) Faction affected (Fa) determined by the following formula 1−(x/y) where x is the experimental sample and y is the no Bouvardin/no drug control) (B) Corresponding CI values. Cells were irradiated in a Faxitron X-ray cabinet x-ray system (Lincolnshire, Ill.) set at 115 kV and 5 mA (producing 5.33 Rads/sec or 3.2 Gy/min) Note that this X-ray machine, produces a higher dose rate (lower exposure time) than the X-ray machine used on H157 cells in FIG. 18. Even with the same settings, higher IR doses are needed to achieve the same Fa. More important, combinatorial effects with drugs are similar if not identical on the two machines.

[4] = system: Det562 Head and Neck Squamous Cell Carcinoma cells; assay: Streptovitacin A alone and in combination with taxol on human cancer cells; assay type: cell-based; settings: at a wide range of doses
Procedure: FIG. 11 depicts that streptovitacin A synergizes with taxol on Det562 Head and Neck Cancer cells. Concentrations for streptovitacin/taxol are shown. CI=1 indicates additive effects; CI>1 indicates antagonistic effects; CI<1 indicates synergy. The y-axis is “Combination Index” (CI).
The effect of streptovitacin A on human cancer cells alone and in combination with taxol was tested.
FIG. 11 depicts that at a wide range of doses the two drugs are synergistic (CI<1) in Det562 Head and Neck Squamous Cell Carcinoma cells.

[5] = system: wild type Drosophila larvae; assay: Drosophila larval survival to adulthood (eclosion), drug with and without IR, wild type; assay type: in vivo; settings: wild type Drosophila larvae
Procedure: as §1, with “To validate the identification of Bouvardin from the primary screen, the effect of this molecule on Drosophila larvae alone or in combination with radiation were assessed (FIG. 12). The” for “The”
as §2, §3, §4
as §5, with “In all experiments using human cells, cells in 96-well plates were irradiated with a RS2000 Biological Irradiator (Rad Source Technologies, Inc.) delivering 1 Gy/min.” left out

[6] = system: Det562 cells; assay: CellTiter-Glo Luminescent Cell Viability Assay, Bouvardin with Taxol, Det562; assay type: cell-based, human; settings: Det562 versus FaDu
Procedure: “Combination Index” computation. Combination Indices were calculated using CalcuSyn software (Biosoft), which uses the method of Chou and Talalay. This method first computes drug-induced effect using the Hill Equation: where E is the measured effect; C is the drug concentration; Emax is the full range of drug effect, usually at or near 100%; IC50 is the drug concentration producing the median effect of 50%; and n is the curve shape parameter describing the steepness of the concentration-effect relationship. The Chou and Talalay method then linearizes the Hill Equation by logarithmic transformation as: where fu is the fraction of cells left unaffected after drug exposure, fa is the fraction of cells affected by the exposure, C is the drug concentration used, Cm is the concentration to achieve the median effect, and n is the curve shape parameter. Cm and n are equivalent to IC50 and n, respectively, in the Hill Equation. The values of n (obtained from the slope), nlog(Cm) (obtained from the absolute value of the intercept), and, therefore, Cm are obtained by plotting log(fu−1−1) versus log(C). […]
The growth inhibitory effects of Bouvardin with Taxol were evaluated using CellTiter-Glo® Luminescent Cell Viability Assay (Promega G7570). […] Luminescence of each well was measured using an automated plate reader.

[7] = system: cells from human squamous cell carcinoma, melanoma, non-small cell lung carcinoma, malignant gliomas and small cell lung cancer; settings: Topotecan and its analogs; preclinical models; cited from earlier work
[8] = system: xenografts of Rhabdomyosarcoma; settings: cited from earlier work

CC[C@@]1(O)C(=O)OCc2c1cc1n(c2=O)Cc2cc3ccccc3nc2-1 [20-S Camptothecin]
Reproducible hit that increased the sensitivity of larvae to radiation; screen in which identified [1]: Camptothecin (1)

CC[C@H](C)[C@H]1NC(=O)[C@@H](NC(=O)[C@@H](CC(C)C)N(C)C(=O)[C@@H]2CCCN2C(=O)C(C)O)[C@@H](C)OC(=O)[C@H](Cc2ccc(OC)cc2)N(C)C(=O)[C@@H]2CCCN2C(=O)[C@H](CC(C)C)NC(=O)[C@@H](C)C(=O)[C@H](C(C)C)OC(=O)C[C@@H]1O (stereo partly shown) [Didemnin B]
Reproducible hit that increased the sensitivity of larvae to radiation; screen in which identified [1]: Didemnin B (2)

C[C@H]1CC[C@@H](C(C)(C)O)CC2=C1CC[C@@H]2C [Guaiol]
Reproducible hit that increased the sensitivity of larvae to radiation; screen in which identified [1]: Guaiol (2)

C[C@H]1C[C@@](C)(O)C[C@@H]([C@H](O)CC2CC(=O)NC(=O)C2)C1=O [Streptovitacin A, streptovitacin A]
fraction of p53 mutant larvae that survive to adulthood versus wild type larvae [2]: lower than the fraction of wild type larvae that survive to adulthood | fraction of p53 mutant larvae that survive to adulthood versus wild type larvae ([2]; listed as streptovitacin A): kills p53 mutant larvae selectively over wild type larvae | interaction of drug with radiation [3]: synergize at most combinations tested | Combination Index (CI), streptovitacin A with taxol [4]: < 1 | manner in which drug and ionizing radiation act together to kill larvae [5]: act synergistically | observed average for the combination versus expected additive value ([5]; 10 μM drug + IR): significantly lower than the expected additive value

CC(=O)O[C@H]1C(=O)[C@@]2(C)[C@H]([C@H](OC(=O)c3ccccc3)[C@]3(O)C[C@H](OC(=O)[C@H](O)[C@@H](NC(=O)c4ccccc4)c4ccccc4)C(C)=C1C3(C)C)[C@]1(OC(C)=O)CO[C@@H]1C[C@@H]2O [Taxol, paclitaxel, reference compound]
sensitivity of cells to Taxol alone [6]: more sensitive to Taxol alone than FaDu cells

CC[C@@]1(O)C(=O)OCc2c1cc1n(c2=O)Cc2cc3c(CN(C)C)c(O)ccc3nc2-1 [Topotecan]
interaction with radiation [7]: synergize with radiation | interaction with radiation [8]: Synergy between Topotecan and radiation has been confirmed

Bleomycin
Reproducible hit that increased the sensitivity of larvae to radiation; screen in which identified [1]: Bleomycin (2)
